This test addresses recombinant human His-ATG7 enzyme (Homo sapiens (Human), UniProt O95352). Nature of the test: ATG7 Enzyme Assay (HTRF/FRET, ATG3-GST and Flag-Gabarap). The class given is biochemical. The settings on record: for inhibition at 0.111 µM: Concentration 0.111 μM; for inhibition at 0.111 µM / inhibition at 0.123 µM / inhibition at 0.069 µM: read-out: Percent Inhibition; for inhibition at 0.123 µM: Concentration 0.123 μM; for inhibition at 0.069 µM: Concentration 0.069 μM. The procedure, abridged:
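HTRF read-out after 2 h at 24° C, using Eu-cryptate anti-Flag and XL-APC anti-GST antibodies in an EDTA stop buffer. The preceding 105 min, 24° C reaction (pH 7.5) held 10 μM ATP, 5 nM each ATG3-GST and Flag-Gabarap, and 0.15 nM human His-ATG7. Values are IC50 or percent inhibition at one concentration.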
For orientation: Time-resolved FRET reads energy transfer from a long-lived donor to a nearby acceptor.

Consider 20 molecules from patent publication US10865208B2, “ATG7 inhibitors and the uses thereof” (Millennium Pharmaceuticals, Inc., priority 2016, dated 2020).

pIC50: −log10 of the molar value.

Chain of recombinant human His-ATG7 enzyme (O95352 whole entry): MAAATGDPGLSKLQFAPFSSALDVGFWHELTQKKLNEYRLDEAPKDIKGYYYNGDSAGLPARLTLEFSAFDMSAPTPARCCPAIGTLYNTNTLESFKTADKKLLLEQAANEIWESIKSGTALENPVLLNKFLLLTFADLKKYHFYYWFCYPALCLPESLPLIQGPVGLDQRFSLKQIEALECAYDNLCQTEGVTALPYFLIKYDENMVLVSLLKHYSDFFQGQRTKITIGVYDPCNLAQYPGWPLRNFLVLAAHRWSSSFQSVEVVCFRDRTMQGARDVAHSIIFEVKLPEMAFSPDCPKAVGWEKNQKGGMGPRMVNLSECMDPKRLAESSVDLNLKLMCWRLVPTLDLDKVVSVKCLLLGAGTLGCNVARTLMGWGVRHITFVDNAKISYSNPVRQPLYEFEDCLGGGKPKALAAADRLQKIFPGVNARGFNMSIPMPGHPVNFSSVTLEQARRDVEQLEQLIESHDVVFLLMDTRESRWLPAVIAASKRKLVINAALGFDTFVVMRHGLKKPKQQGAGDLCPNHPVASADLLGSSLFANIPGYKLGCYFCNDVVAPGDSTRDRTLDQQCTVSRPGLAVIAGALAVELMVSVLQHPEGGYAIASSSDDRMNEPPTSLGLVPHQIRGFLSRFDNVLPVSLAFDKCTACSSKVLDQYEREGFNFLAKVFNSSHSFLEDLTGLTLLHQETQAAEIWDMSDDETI

As to `CSc1nn([C@@H]2O[C@H](COS(N)(=O)=O)[C@@H](O)[C@H]2O)c2ncnc(N)c12` [Compound I-42, {(2R,3S,4R,5R)-5-[4-amino-3-(methylsulfanyl)-1H-pyrazolo[3,4-d]pyrimidin-1-yl]-3,4-dihydroxytetrahydrofuran-2-yl}methyl Sulfamate], the pIC50 was greater than 7.70 and the inhibition at 0.111 µM was 79%.

With `Nc1ncnc2c1c(SCc1ccccn1)nn2[C@@H]1O[C@H](COS(N)(=O)=O)[C@@H](O)[C@H]1O` [Compound I-59, [(2R,3S,4R,5R)-5-{4-amino-3-[(pyridin-2-ylmethyl)sulfanyl]-1H-pyrazolo[3,4-d]pyrimidin-1-yl}-3,4-dihydroxytetrahydrofuran-2-yl]methyl sulfamate], the pIC50 was 7.30 to 7.70 and the inhibition at 0.123 µM stood at 75%.

In the case of `COCCSc1nn([C@@H]2O[C@H](COS(N)(=O)=O)[C@@H](O)[C@@H]2F)c2ncnc(N)c12` [Compound I-154, [(2R,3R,4S,5R)-5-{4-amino-3-[(2-methoxyethyl)sulfanyl]-1H-pyrazolo[3,4-d]pyrimidin-1-yl}-4-fluoro-3-hydroxytetrahydrofuran-2-yl]methyl sulfamate], the pIC50 was 7.00 to 7.30 and the inhibition at 0.111 µM came out at 64%.

Regarding `CC(C)Sc1nn([C@H]2C[C@H](O)[C@@H](COS(N)(=O)=O)O2)c2ncnc(N)c12` [Compound I-181, {(2R,3S,5R)-5-[4-amino-3-(isopropylsulfanyl)-1H-pyrazolo[3,4-d]pyrimidin-1-yl]-3-hydroxytetrahydrofuran-2-yl}methyl Sulfamate], the pIC50 is 7.30 to 7.70 and the inhibition at 0.123 µM stood at 81%.

With `CCOc1nn([C@@H]2O[C@H](COS(N)(=O)=O)[C@@H](O)[C@H]2O)c2ncnc(N)c12` [Compound I-5, [(2R,3S,4R,5R)-5-(4-amino-3-ethoxy-1H-pyrazolo[3,4-d]pyrimidin-1-yl)-3,4-dihydroxytetrahydrofuran-2-yl]methyl Sulfamate], the pIC50 was 6.30 to 7.00 and the inhibition at 0.069 µM was 23%.

For the molecule `Nc1ncnc2c1c(SCc1ccccc1)nn2[C@H]1C[C@H](O)[C@H](COS(N)(=O)=O)O1` [Compound I-221, {(2S,3S,5R)-5-[4-amino-3-(benzylsulfanyl)-1H-pyrazolo[3,4-d]pyrimidin-1-yl]-3-hydroxytetrahydrofuran-2-yl}methyl Sulfamate], the pIC50 was 6.30 to 7.00 and the inhibition at 0.111 µM is 26%.

Consider `COc1cccc(Sc2nn([C@H]3C[C@H](O)[C@@H](COS(N)(=O)=O)O3)c3ncnc(N)c23)c1` [Compound I-199, [(2R,3S,5R)-5-{4-amino-3-[(3-methoxyphenyl)sulfanyl]-1H-pyrazolo[3,4-d]pyrimidin-1-yl}-3-hydroxytetrahydrofuran-2-yl]methyl sulfamate], for which the pIC50 was 7.30 to 7.70 and the inhibition at 0.111 µM is 74%.

In the case of `Nc1ncnc2c1c(Sc1cc(C(F)(F)F)ccn1)nn2[C@@H]1O[C@H](COS(N)(=O)=O)[C@@H](O)[C@@H]1F` [Compound I-117, [(2R,3R,4S,5R)-5-(4-amino-3-{[4-(trifluoromethyl)pyridin-2-yl]sulfanyl}-1H-pyrazolo[3,4-d]pyrimidin-1-yl)-4-fluoro-3-hydroxytetrahydrofuran-2-yl]methyl sulfamate], the pIC50 is 7.30 to 7.70 and the inhibition at 0.111 µM was determined as 83%.

As for `C[S+]([O-])c1nn([C@@H]2O[C@H](COS(N)(=O)=O)[C@@H](O)[C@H]2O)c2ncnc(N)c12` (stereo partly drawn) [Compound I-87, {(2R,3S,4R,5R)-5-[4-amino-3-(methylsulfinyl)-1H-pyrazolo[3,4-d]pyrimidin-1-yl]-3,4-dihydroxytetrahydrofuran-2-yl}methyl Sulfamate], the pIC50 was 7.00 to 7.30 and the inhibition at 0.123 µM stood at 58%.

On to `Nc1ncnc2c1c(C(F)(F)F)nn2[C@H]1C[C@H](O)[C@@H](COS(N)(=O)=O)O1` [Compound I-171, {(2R,3S,5R)-5-[4-amino-3-(trifluoromethyl)-1H-pyrazolo[3,4-d]pyrimidin-1-yl]-3-hydroxytetrahydrofuran-2-yl}methyl Sulfamate], for which the pIC50 is 6.30 to 7.00 and the inhibition at 0.111 µM came out at 48%.

Take `N#CCc1nn([C@@H]2O[C@H](COS(N)(=O)=O)[C@@H](O)[C@H]2O)c2ncnc(N)c12` [Compound I-29, {(2R,3S,4R,5R)-5-[4-amino-3-(cyanomethyl)-1H-pyrazolo[3,4-d]pyrimidin-1-yl]-3,4-dihydroxytetrahydrofuran-2-yl}methyl Sulfamate]: the pIC50 was less than 6.30 and the inhibition at 0.123 µM was determined as 26%.

In the case of `CC(C)Sc1nn([C@@H]2O[C@H](COS(N)(=O)=O)[C@@H](O)[C@H]2O)c2ncnc(N)c12` [Compound I-58, {(2R,3S,4R,5R)-5-[4-amino-3-(isopropylsulfanyl)-1H-pyrazolo[3,4-d]pyrimidin-1-yl]-3,4-dihydroxytetrahydrofuran-2-yl}methyl Sulfamate], the pIC50 is greater than 7.70 and the inhibition at 0.123 µM came out at 87%.

Regarding `Nc1ncnc2c1c(CO)nn2[C@@H]1O[C@H](COS(N)(=O)=O)[C@@H](O)[C@H]1O` [Compound I-8, {(2R,3S,4R,5R)-5-[4-amino-3-(hydroxymethyl)-1H-pyrazolo[3,4-d]pyrimidin-1-yl]-3,4-dihydroxytetrahydrofuran-2-yl}methyl Sulfamate], the pIC50 is 6.30 to 7.00 and the inhibition at 0.069 µM was 32%.

Regarding `Nc1ncnc2c1c(Sc1ccc(Cl)cc1)nn2[C@@H]1O[C@H](COS(N)(=O)=O)[C@@H](O)[C@H]1O` [Compound I-64, [(2R,3S,4R,5R)-5-{4-amino-3-[(4-chlorophenyl)sulfanyl]-1H-pyrazolo[3,4-d]pyrimidin-1-yl}-3,4-dihydroxytetrahydrofuran-2-yl]methyl sulfamate], the negative logarithm of the IC50 (pIC50) is 7.30 to 7.70 and the inhibition at 0.123 µM was 84%.

On to `CN1C(=O)Cc2cc(Sc3nn([C@H]4C[C@H](O)[C@@H](COS(N)(=O)=O)O4)c4ncnc(N)c34)ccc21` [Compound I-185, [(2R,3S,5R)-5-{4-amino-3-[(1-methyl-2-oxo-2,3-dihydro-1H-indol-5-yl)sulfanyl]-1H-pyrazolo[3,4-d]pyrimidin-1-yl}-3-hydroxytetrahydrofuran-2-yl]methyl sulfamate], for which the pIC50 is 7.00 to 7.30 and the inhibition at 0.111 µM came to 56%.

As for `CC(C)(O)CSc1nn([C@@H]2O[C@H](COS(N)(=O)=O)[C@@H](O)[C@H]2O)c2ncnc(N)c12` [Compound I-28, [(2R,3S,4R,5R)-5-{4-amino-3-[(2-hydroxy-2-methylpropyl)sulfanyl]-1H-pyrazolo[3,4-d]pyrimidin-1-yl}-3,4-dihydroxytetrahydrofuran-2-yl]methyl sulfamate], the negative logarithm of the IC50 (pIC50) was 7.00 to 7.30 and the inhibition at 0.123 µM was 71%.

With `Nc1ncnc2c1c(Sc1ccc(F)cc1)nn2[C@H]1C[C@H](O)[C@H](COS(N)(=O)=O)O1` [Compound I-223, [(2S,3S,5R)-5-{4-amino-3-[(4-fluorophenyl)sulfanyl]-1H-pyrazolo[3,4-d]pyrimidin-1-yl}-3-hydroxytetrahydrofuran-2-yl]methyl sulfamate], the pIC50 was 6.30 to 7.00 and the inhibition at 0.111 µM worked out at 35%.

On to `Nc1ncnc2c1c(SCC1CC1)nn2[C@@H]1O[C@H](COS(N)(=O)=O)[C@@H](O)[C@@H]1F` [Compound I-135, [(2R,3R,4S,5R)-5-{4-amino-3-[(cyclopropylmethyl)sulfanyl]-1H-pyrazolo[3,4-d]pyrimidin-1-yl}-4-fluoro-3-hydroxytetrahydrofuran-2-yl]methyl sulfamate], for which the negative-log IC50 (pIC50) was 7.30 to 7.70 and the inhibition at 0.111 µM was 82%.

As for `Nc1ncnc2c1c(Sc1cccc(OC(F)(F)F)c1)nn2[C@H]1C[C@H](O)[C@@H](COS(N)(=O)=O)O1` [Compound I-198, [(2R,3S,5R)-5-(4-amino-3-{[3-(trifluoromethoxy)phenyl]sulfanyl}-1H-pyrazolo[3,4-d]pyrimidin-1-yl)-3-hydroxytetrahydrofuran-2-yl]methyl sulfamate], the pIC50 is 6.30 to 7.00 and the inhibition at 0.111 µM came to 42%.

Regarding `Nc1ncnc2c1c(Sc1ccc3ccccc3c1)nn2[C@H]1C[C@H](O)[C@H](COS(N)(=O)=O)O1` [Compound I-210, {(2S,3S,5R)-5-[4-amino-3-(2-naphthylsulfanyl)-1H-pyrazolo[3,4-d]pyrimidin-1-yl]-3-hydroxytetrahydrofuran-2-yl}methyl Sulfamate], the pIC50 is 6.30 to 7.00 and the inhibition at 0.111 µM turned out to be 35%.

One may read the pIC50 as the negative decadic logarithm of the IC50, by convention in mol/L. What is called inhibition is the share of the control response that was lost under treatment.
